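Interpolation was linear, between the two tested concentrations surrounding the appropriate level; five concentrations were tested over 48 hours in 96-well plates. GI50 = concentration required for 50% inhibition of growth. At the TGI there is no net growth.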
Assays:
Assay in all cases: inhibition of tumour cell growth, NCI panel, 48 h
SF-295 CNS = system: SF-295 CNS
K-562 leukemia = system: K-562 leukemia
A498 renal = system: A498 renal
KM12 colon = system: KM12 colon
T-47D breast = system: T-47D breast
UACC-257 melanoma = system: UACC-257 melanoma
UO-31 renal = system: UO-31 renal
BT-549 breast = system: BT-549 breast
DU-145 prostate = system: DU-145 prostate
HS 578T breast = system: HS 578T breast

Row | Compound | GI50 (SF-295 CNS) | TGI (SF-295 CNS) | GI50 (K-562 leukemia) | TGI (K-562 leukemia) | GI50 (A498 renal) | TGI (A498 renal) | GI50 (KM12 colon) | TGI (KM12 colon) | GI50 (T-47D breast) | TGI (T-47D breast) | GI50 (UACC-257 melanoma) | TGI (UACC-257 melanoma) | GI50 (UO-31 renal) | TGI (UO-31 renal) | GI50 (BT-549 breast) | TGI (BT-549 breast) | GI50 (DU-145 prostate) | TGI (DU-145 prostate) | GI50 (HS 578T breast) | TGI (HS 578T breast)
1 | CCN(Cc1ccccc1)C1CCN(Cc2cc(Br)ccc2O)CC1 | 25.6 µM | > 100 µM | 26.6 µM | > 100 µM | 9.29 µM | > 100 µM | 42.3 µM | > 100 µM | 24 µM | > 100 µM | 26 µM | > 100 µM | 24 µM | > 100 µM | 44.4 µM | > 100 µM | > 100 µM | > 100 µM | 57.2 µM | > 100 µM
2 | CCC(C)[C@H](NC(=O)Nc1cc(C(F)(F)F)cc(C(F)(F)F)c1)C(=O)N[C@@H](Cc1cn(C)cn1)C(=O)OC (stereo not given in full) | 1.36 µM | 1.95 µM | 1.06 µM | 2.44 µM | 1.6 µM | 3.4 µM | 0.788 µM | 1.83 µM | 0.912 µM | 1.74 µM | 1.3 µM | 1.85 µM | 1.52 µM | 2.31 µM | 0.698 µM | 1.68 µM | 1.07 µM | 1.83 µM | 1.47 µM | 2.61 µM
3 | O=C(Nc1cccc(O)c1)c1ccc(NC2=C(Cl)C(=O)N(Cc3ccc(Cl)cc3Cl)C2=O)cc1 | 1.95 µM | 4.07 µM | 1.08 µM | 3.96 µM | 15 µM | 29.3 µM | 1.84 µM | 3.66 µM | 2.01 µM | > 21.2 µM | 7.96 µM | 21.6 µM | 1.91 µM | 3.75 µM | 5.7 µM | 12.2 µM | 6.15 µM | 11.6 µM | 3.24 µM | 11.9 µM
4 | COC(=O)N[C@H](C(=O)O)C(C)O[Si](C)(C)C(C)(C)C (stereo not given in full) | – | > 100 µM | – | > 100 µM | – | > 100 µM | – | > 100 µM | – | > 100 µM | – | > 100 µM | – | > 100 µM | – | > 100 µM | – | > 100 µM | – | > 100 µM
5 | COc1cccc(CC(C)=C(c2ccc(OCCN3CCCCC3)cc2)c2ccc(OCCN3CCCCC3)cc2)c1 | 2.42 µM | 4.82 µM | 0.315 µM | 0.802 µM | 1.75 µM | 3.72 µM | 1.93 µM | 4.11 µM | 1.58 µM | 4.06 µM | 2.14 µM | 4.33 µM | 1.84 µM | 3.66 µM | 1.93 µM | 3.82 µM | 2.11 µM | 4.26 µM | 1.52 µM | 4.02 µM
6 | C=CCN(CCNS(=O)(=O)c1ccc(C)cc1)S(=O)(=O)c1ccc(C)cc1 | – | > 100 µM | – | > 100 µM | – | 26.8 µM | – | > 100 µM | – | > 100 µM | – | > 100 µM | – | > 100 µM | – | 61 µM | – | > 100 µM | – | > 100 µM
7 | CCC(C)Nc1ccc(N)cc1 (stereo not given) | 4.91 µM | 20.1 µM | 2.36 µM | 10.4 µM | 7.9 µM | 23.4 µM | 4.09 µM | 13.5 µM | 3.63 µM | 14.1 µM | 5.33 µM | 16.9 µM | 3.3 µM | 14 µM | 6.26 µM | 20.9 µM | 5.75 µM | 19.7 µM | 4.35 µM | 24.4 µM
8 | Nc1nc([Se])c2ncn(C3OC(CO)C(O)C3O)c2n1 (stereo not given) | 3.95 µM | > 100 µM | 5.59 µM | > 100 µM | 17 µM | > 100 µM | 10.2 µM | 54.9 µM | 28.8 µM | > 100 µM | 37.5 µM | > 100 µM | 24.3 µM | > 100 µM | 30.6 µM | > 100 µM | 3.31 µM | > 100 µM | 4.71 µM | > 100 µM

Reference: PubChem BioAssay (NCI)
